One data set concerns HBX2 HIV-1. The data set is described as follows: Antiviral cytotoxicity assay with MT4 cells, modified peptides and conjugates. The format is cell-based. Conditions: HBX2 HIV-1, MT4 cells; average of 2-3 experiments. How it is done:
(§1) Antiviral potency of the peptides was analyzed against HIV-1 HXB2 or NLA-3 strains using a cytotoxicity assay with MT4 cells as previously described (ref 1-3) with minor modifications. MT-4 cells (1.5×10^4/ml) were exposed to 200 50% tissue culture infective doses (TCID50) of viruses in the presence of various concentrations of test compound in 96 well microtiter plates and incubated at 37° C. for 5 days. Cytotoxicity of HIV was measured by the addition of 3-(4,5-dimethylthiazol-2-yl)-2,5-diphenytetrazolium bromide (MMI) solution to each well to a final concentration of 0.75 mg/ml, and incubation for 1 hour a 37° C. After incubation, cells were dissolved in isopropanoyrriton-X 100/HCl (1000:50:25) solution. Absorbance was monitored in a microplate reader (Spectramax, Molecular Devices) at 540 rm and 690 nm. MT-4 cells were obtained from the AIDS Research and Reference Reagent Program (ARRRP, Division of AIDS, NIAID, NIH: MT-4 from Dr. D. Richman). Cells were propagated in RPMI 1640 growth medium supplemented with 10% fetal bovine serum, 50U of penicillin and 50 μg of streptomycin per ml ([Ivitrogen, Carlsbad Calif.).

The test system of another data set is HIV-1 IIIB. The data set is described as follows: Antiviral cytotoxicity (MTT) assay with MT4 cells, HIV-1 IIIB. Type of data set: cell-based. The note with it: MT-4 cells, 5 days, average of 2 or 3 experiments.
The next data set concerns HIV NL4-3. The data set is described as follows: Antiviral cytotoxicity (MTT) assay with MT4 cells, HIV NL4-3. The note with it: MT-4 cells, 5 days, average of 2 or 3 experiments. The format is cell-based, HIV-1. The procedure: as §1
For data set [1] the following is noted: Kilby et al 1998; cited from earlier work.

Where a SMILES comes first, the peptide text is derived from it. [ ]: non-standard residue; d: D form. The star is where a group is joined. Propanoyl(3-maleimido) = O=C1C=CC(=O)N1CCC(=O)*; Nle = CCCC[C@H](N)C(=O)O; AEEA = NCCOCCOCC(=O)O

Usually IC50 stands for the concentration at which inhibition is half-maximal. Low values mean greater potency in that assay, high ones weaker potency in that assay. `CCCC[C@H](NC(=O)[C@H](Cc1c[nH]c2ccccc12)NC(=O)COCCOCCNC(=O)CCN1C(=O)C=CC1=O)C(=O)N[C@@H](CCC(=O)O)C(=O)N[C@@H](Cc1c[nH]c2ccccc12)C(=O)N[C@@H](CC(=O)O)C(=O)N[C@@H](CCCNC(=N)N)C(=O)N[C@@H](CCCCN)C(=O)N[C@H](C(=O)N[C@@H](CCC(=O)O)C(=O)N[C@@H](CCC(=O)O)C(=O)N[C@@H](Cc1ccc(O)cc1)C(=O)N[C@H](C(=O)N[C@@H](CCCCN)C(=O)N[C@@H](CCCCN)C(=O)N[C@H](C(=O)N[C@@H](CCCCN)C(=O)N[C@@H](CCCCN)C(=O)N[C@@H](CC(C)C)C(=O)N[C@H](C(=O)N[C@@H](CCC(=O)O)C(=O)N[C@@H](CCC(=O)O)C(=O)N[C@@H](CO)C(=O)N[C@@H](CCC(N)=O)C(=O)N[C@@H](CCC(=O)O)C(=O)N[C@@H](CCC(N)=O)C(=O)N[C@@H](CCC(N)=O)C(=O)N[C@@H](CCC(=O)O)C(=O)N[C@@H](CCCCN)C(=O)N[C@@H](CC(N)=O)C(=O)N[C@@H](CCC(=O)O)C(=O)N[C@@H](CCCCN)C(=O)N[C@@H](CCC(=O)O)C(=O)N[C@@H](CC(C)C)C(=O)N[C@@H](CCCCN)C(N)=O)[C@@H](C)CC)[C@@H](C)CC)[C@@H](C)O)[C@@H](C)CC` [SPI-70038] ({Propanoyl(3-maleimido)-AEEA}-W[Nle]EWDRKIEEYTKKIKKLIEESQEQQEKNEKELK-NH2): 2 nM corresponded to half-maximal inhibition in the data set on HBX2 HIV-1 (IC50).
`CCCC[C@H](NC(=O)[C@H](Cc1c[nH]c2ccccc12)NC(C)=O)C(=O)N[C@@H](CCC(=O)O)C(=O)N[C@@H](Cc1c[nH]c2ccccc12)C(=O)N[C@@H](CC(=O)O)C(=O)N[C@@H](CCCNC(=N)N)C(=O)N[C@@H](CCCCN)C(=O)N[C@H](C(=O)N[C@@H](CCC(=O)O)C(=O)N[C@@H](CCC(=O)O)C(=O)N[C@@H](Cc1ccc(O)cc1)C(=O)N[C@H](C(=O)N[C@@H](CCCCN)C(=O)N[C@@H](CCCCN)C(=O)N[C@H](C(=O)N[C@@H](CCCCN)C(=O)N[C@@H](CCCCN)C(=O)N[C@@H](CC(C)C)C(=O)N[C@H](C(=O)N[C@@H](CCC(=O)O)C(=O)N[C@@H](CCC(=O)O)C(=O)N[C@@H](CO)C(=O)N[C@@H](CCC(N)=O)C(=O)N[C@@H](CCC(=O)O)C(=O)N[C@@H](CC(C)C)C(=O)N[C@@H](CCC(N)=O)C(=O)N[C@@H](CCC(=O)O)C(=O)N[C@@H](CCCCN)C(=O)N[C@@H](CC(N)=O)C(=O)N[C@@H](CCC(=O)O)C(=O)N[C@@H](CCCCN)C(=O)N[C@@H](CCC(=O)O)C(=O)N[C@@H](CC(C)C)C(=O)N[C@@H](CCCCN)C(N)=O)[C@@H](C)CC)[C@@H](C)CC)[C@@H](C)O)[C@@H](C)CC` [peptide 7, Ac-WXEWDRKIEEYTKKIKKLIEESQELQEKNEKELK-NH2] (Ac-W[Nle]EWDRKIEEYTKKIKKLIEESQELQEKNEKELK-NH2): the IC50 turned out to be 2.4 nM with HIV-1 IIIB and 1.1 nM in the data set with HIV NL4-3.
For `CCCC[C@H](NC(=O)[C@H](Cc1c[nH]c2ccccc12)NC(C)=O)C(=O)N[C@@H](CCC(=O)O)C(=O)N[C@@H](Cc1c[nH]c2ccccc12)C(=O)N[C@@H](CC(=O)O)C(=O)N[C@@H](CCCNC(=N)N)C(=O)N[C@@H](CCCCN)C(=O)N[C@H](C(=O)N[C@@H](CCC(=O)O)C(=O)N[C@@H](CCC(=O)O)C(=O)N[C@@H](Cc1ccc(O)cc1)C(=O)N[C@H](C(=O)N[C@@H](CCCCN)C(=O)N[C@@H](CCCCN)C(=O)N[C@H](C(=O)N[C@@H](CCCCN)C(=O)N[C@@H](CCCCN)C(=O)N[C@@H](CC(C)C)C(=O)N[C@H](C(=O)N[C@@H](CCC(=O)O)C(=O)N[C@@H](CCC(=O)O)C(=O)N[C@@H](C)C(=O)N[C@@H](CCC(N)=O)C(=O)N[C@@H](CCC(=O)O)C(=O)N[C@@H](CCC(N)=O)C(=O)N[C@@H](CCC(N)=O)C(=O)N[C@@H](CCC(=O)O)C(=O)N[C@@H](CCCCN)C(=O)N[C@@H](CC(N)=O)C(=O)N[C@@H](CCC(=O)O)C(=O)N[C@@H](CCCCN)C(=O)N[C@@H](CCC(=O)O)C(=O)N[C@@H](CC(C)C)C(=O)N[C@@H](CCCCN)C(N)=O)[C@@H](C)CC)[C@@H](C)CC)[C@@H](C)O)[C@@H](C)CC` [peptide 8, Ac-WXEWDRKIEEYTKKIKKLIEEAQEQQEKNEKELK-NH2] (Ac-W[Nle]EWDRKIEEYTKKIKKLIEEAQEQQEKNEKELK-NH2), in that order: 2.6 nM and 1.2 nM.
Consider `CCCC[C@H](NC(=O)[C@H](Cc1c[nH]c2ccccc12)NC(C)=O)C(=O)N[C@@H](CCC(=O)O)C(=O)N[C@@H](Cc1c[nH]c2ccccc12)C(=O)N[C@@H](CC(=O)O)C(=O)N[C@@H](CCCNC(=N)N)C(=O)N[C@@H](CCCCN)C(=O)N[C@H](C(=O)N[C@@H](CCC(=O)O)C(=O)N[C@@H](CCC(=O)O)C(=O)N[C@@H](Cc1ccc(O)cc1)C(=O)N[C@H](C(=O)N[C@@H](CCCCN)C(=O)N[C@@H](CCCCN)C(=O)N[C@H](C(=O)N[C@@H](CCC(=O)O)C(=O)N[C@@H](CCC(=O)O)C(=O)N[C@@H](CC(C)C)C(=O)N[C@H](C(=O)N[C@@H](CCCCN)C(=O)N[C@@H](CCCCN)C(=O)N[C@@H](CO)C(=O)N[C@@H](CCC(N)=O)C(=O)N[C@@H](CCC(=O)O)C(=O)N[C@@H](CCC(N)=O)C(=O)N[C@@H](CCC(N)=O)C(=O)N[C@@H](CCC(=O)O)C(=O)N[C@@H](CCCCN)C(=O)N[C@@H](CC(N)=O)C(=O)N[C@@H](CCC(=O)O)C(=O)N[C@@H](CCCCN)C(=O)N[C@@H](CCC(=O)O)C(=O)N[C@@H](CC(C)C)C(=O)N[C@@H](CCCCN)C(N)=O)[C@@H](C)CC)[C@@H](C)CC)[C@@H](C)O)[C@@H](C)CC` [peptide 9, Ac-WXEWDRKIEEYTKKIEELIKKSQEQQEKNEKELK-NH2] (Ac-W[Nle]EWDRKIEEYTKKIEELIKKSQEQQEKNEKELK-NH2), for which the results for the IC50 in the data set on HIV-1 IIIB and with HIV NL4-3 were 1.7 nM and 0.9 nM, respectively.
For `CCCC[C@H](NC(=O)[C@H](Cc1c[nH]c2ccccc12)NC(C)=O)C(=O)N[C@@H](CCC(=O)O)C(=O)N[C@@H](Cc1c[nH]c2ccccc12)C(=O)N[C@@H](CC(=O)O)C(=O)N[C@@H](CCCNC(=N)N)C(=O)N[C@@H](CCCCN)C(=O)N[C@H](C(=O)N[C@@H](CCC(=O)O)C(=O)N[C@@H](CCC(=O)O)C(=O)N[C@@H](Cc1ccc(O)cc1)C(=O)N[C@H](C(=O)N[C@@H](CCCCN)C(=O)N[C@@H](CCCCN)C(=O)N[C@H](C(=O)N[C@@H](CCC(=O)O)C(=O)N[C@@H](CCC(=O)O)C(=O)N[C@@H](CC(C)C)C(=O)N[C@H](C(=O)N[C@@H](CCCCN)C(=O)N[C@@H](CCCCN)C(=O)N[C@@H](C)C(=O)N[C@@H](CCC(N)=O)C(=O)N[C@@H](CCC(=O)O)C(=O)N[C@@H](CCC(N)=O)C(=O)N[C@@H](CCC(N)=O)C(=O)N[C@@H](CCC(=O)O)C(=O)N[C@@H](CCCCN)C(=O)N[C@@H](CC(N)=O)C(=O)N[C@@H](CCC(=O)O)C(=O)N[C@@H](CCCCN)C(=O)N[C@@H](CCC(=O)O)C(=O)N[C@@H](CC(C)C)C(=O)N[C@@H](CCCCN)C(N)=O)[C@@H](C)CC)[C@@H](C)CC)[C@@H](C)O)[C@@H](C)CC` [peptide 11, Ac-WXEWDRKIEEYTKKIEELIKKAQEQQEKNEKELK-NH2] (Ac-W[Nle]EWDRKIEEYTKKIEELIKKAQEQQEKNEKELK-NH2), in that order: 2.1 nM and 1.1 nM.
What is called half-life is the time in which the quantity being followed falls by half. As for enfuvirtide, the 50% inhibitory concentration (IC50) was 4.7 nM in the data set with HIV-1 IIIB and 120 nM in the data set on HIV NL4-3. Moreover, the half-life in data set [1] is 1.8 h.

(Values after US20070207952A1, “Long Acting Biologically Active Conjugates” (priority 2003, published 2007).)
